In series [1] the test system is S. aureus. The series is described as follows: Transmission electron microscopy of S. aureus cells treated with peptides. The series is classed as cell-based, Staphylococcus aureus subsp. aureus CECT 4013. The following applies: 25 μg/mL, 1 h. The method, then: The samples were prepared in the same way as for scanning electron microscopy, except for the series of graded dehydration with ethanol, in which only the 90° grade was reached. Then the samples were included in resin in 4 steps: ethanol 96°—resin LR-White 2:1 (20 h), ethanol 100°—resin 2:1 (20 h), ethanol 100°—resin 1:2 (20 h) and 100% resin (24 h at 60° C.). After the samples were included in the resin the block was prepared for ultrathin cuts of 60 nm in the equipment Leica UC6 Ultracut Microtome.
Transmission electron microscopy provides high-resolution images which were used to view the ultrastructural damage caused by the peptides inside the bacteria. The cells of S. aureus CECT 4013 were treated with the peptides hBD-3, TcDef3-pep and PaSK at a concentration of 25 μg/mL, for 1 h, and analysed using transmission electron microscopy (FIG. 6). In cells without treatment, an intact cytoplasm membrane (3) and peptidoglycane wall (2) were observed, typical of a Gram+ bacteria as S. aureus, as well as a division septum (1) without malformations, while in treated cells different types of alterations were observed. […] Small size circular structures (9) are observed. These structures show a different electrodensity from cells and lack a cytoplasm membrane and peptidoglycane wall. The biofilm formed by the cells treated with peptides was also observed in the images obtained by transmission electron microscopy (FIG. 7) and it was not observed in the cells treated with human defensin hBD-3 (FIG. 6).

In series [2] the test system is S. aureus. The series is described as follows: Antimicrobial activity by flow cytometry (SYBR Green / propidium iodide). The series is classed as cell-based, Staphylococcus aureus subsp. aureus CECT 4013. The conditions noted are these: 25 μg/mL, 8 h at 37° C., 2 replicates. On the procedure: The strain used was CECT 4013 of S. aureus subsp. aureus, publicly accessible deposited in the Spanish Type Culture Collection (CECT).
Starting from cells of S. aureus cultured overnight in a liquid medium LB (peptone 1%, yeast extract 0.5% and NaCl 1%) at 37° C. with stirring, aliquots were obtained in a new liquid medium and allowed to grow until reaching an optical density at 600 nm (OD600) of 0.5, optimum for detection in the flow cytometer. Aliquots were prepared with a concentration of 5×10^6 cfu/100 μL of S. aureus to which were added 10, 15, 20 and 25 μg/mL of PaSK, 25 μg/mL of TcDef3-pep and H2O (negative control), solvent used to dilute the peptides. The mixtures were incubated at 37° C. for 8 h and marked with the fluorochromes SYBR Green (Invitrogen) (25 μL of a SYBR Green 25× solution in H2O) that stains all the cells and propidium iodide (Sigma) (10 μL of propidium iodide 1 mg/mL) that stains dead cells. Finally, the cell death caused by the peptides was analysed by flow cytometry with the equipment BD Facs Verse (Becton Dickinson), from the cell culture and flow cytometry section of the Central Services for Research Support of the University of Valencia. The experiments were performed in duplicate.
The flow cytometer forces cells to pass one by one through a needle, creating a thin line of liquid and detecting how the laser beam (argon emission laser at 488 nm, in the equipment used) interacts with the cells, depending on how the incident light is deviated and the fluorescence emitted by the excited fluorochromes. The results are presented as graphs obtained with the analysis program BD Facs suite v1.0.5.3841 (Becton Dickinson). […] Then, a second graph is obtained with the parameters SSC and FITC (fluorescence parameter indicating the cells containing SYBR Green), to differentiate the cells from the other particles that may be present in the sample. Lastly, a third graph is obtained with the fluorescence parameters FITC and PerCPCy5.5 (indicating the cells stained with propidium iodide) to differentiate the cells that have been stained only by SYBR Green from those stained with propidium iodide, which will be those that have died.
The antimicrobial activity of the peptide PaSK was determined by flow cytometry. […] Therefore, the use of these two fluorochromes provides a method for determining viable cells, quantifying the loss of cell viability from the increase in propidium iodide inside the dead cells.
After incubating the cells of strain CECT 4013 of S. aureus with 25 μg/mL of the peptides TcDef3-pep and PaSK, the percentage of dead cells was determined. […] FIGS. 1A-1D show the graphs corresponding to the fluorescence obtained in the windows of the flow cytometer.
On the technique in general: Flow cytometry measures light scatter and fluorescence of single cells or particles in a stream.

In series [3] the test system is S. aureus. The series is described as follows: Scanning electron microscopy of S. aureus cells treated with peptides. The following applies: 25 μg/mL, 1 h. The series is classed as cell-based, Staphylococcus aureus subsp. aureus CECT 4013. On the procedure: The cells were prepared in the same way as for the flow cytometry technique and the same aliquots and treatments were performed. The samples were incubated at 37° C. for 1 h. The bacteria were fixed with Karnosky (2.5% paraformaldehyde and 0.5 glutaraldehyde) for 2 h at 4° C. After washing (centrifuging and eliminating the supernatant) they were fixed with 2% osmium tetraoxide for another 2 h, washed again and filtered with a 0.2 μm filter. The cells were then dehydrated in graded ethanol series (30°, 50°, 70°, 90°, 100°) for 10 min in each gradation. To carry out the critical point drying, the ethanol was replaced with liquid CO2, the temperature was increased to accelerate evaporation and the pressure was lowered slowly to conserve the exact shape of the bacteria. Finally, shading with gold palladium was performed for 2 min observing the results in the equipment FEG-SEM HITACHI S4800 at 10 Kv.
Scanning electron microscopy provides high-resolution images used to view the damage caused by the peptides to the bacterial membrane. The cells of S. aureus CECT 4013 were treated with the peptides hBD-3, TcDef3-pep and PaSK at a concentration of 25 μg/mL, for 1 h, and analysed using scanning electron microscopy (FIG. 4). In cells without treatment the circular and uniform form typical of S. aureus was observed, with the intact membrane, while in treated cells various types of morphological alterations can be seen. […] With this treatment small circular structures are observed, smaller than the cells of S. aureus.

The subject of series [4] is MDA-MB-231 triple-negative breast cancer cells. As to the kind of experiment: MTS cell viability, combined treatments of PaSK with chemotherapeutic agents.
For series [5], the system named is S. aureus. The following applies: 10 μg/mL; Contreras et al., 2015; cited from earlier work.
[6] abbreviates: chemotherapeutic agent alone, 72 h, 3 replicates.

The EC50 is the concentration that produces a half-maximal response.

Where no end group is shown, it is not given here.

On to “hBD-3: human defensin hBD-3 (PeptaNova), positive control (GIINTLQKYYCRVRGGRCAVLSCLPKEEQIGKCSTRGRKCCRRKK; ends and bridges not checked; cysteine pairing not given here; UniProt P81534 23-67, looked up)”, for which the “ultrastructural damage, transmission electron microscopy” value with S. aureus [1] is “malformations (4) and lysis of the membrane”. For the same molecule, in the series with S. aureus [2], the “percentage of dead cells (cytotoxicity)” value is reported as “around 70%”. In the series with S. aureus [3], the “biofilm formation, scanning electron microscopy” value is recorded as “did not form a biofilm”; the “morphological alterations, scanning electron microscopy” value was “structural damage and lysis of the membrane”.

Consider `O=c1[nH]cc(F)c(=O)[nH]1` [5-fluorouracyl], for which the EC50 in series [4] (setting [6]) worked out at 25.3 ± 4.33 µM.

As for `COc1cccc2c1C(=O)c1c(O)c3c(c(O)c1C2=O)C[C@@](O)(C(=O)CO)C[C@@H]3O[C@H]1C[C@H](N)[C@H](O)[C@H](C)O1` [doxorubicin], in series [4] (Homo sapiens, MDA-MB-231, 72 h), the EC50 stood at 0.407 ± 0.033 µM.

Regarding `CC(=O)O[C@H]1C(=O)[C@@]2(C)[C@H]([C@H](OC(=O)c3ccccc3)[C@]3(O)C[C@H](OC(=O)[C@H](O)[C@@H](NC(=O)c4ccccc4)c4ccccc4)C(C)=C1C3(C)C)[C@]1(OC(C)=O)CO[C@@H]1C[C@@H]2O` [paclitaxel], the EC50 in series [4] (Homo sapiens, MDA-MB-231, 72 h) worked out at 0.008 ± 0.005 µM.

Turning to “TcDef3-pep: 29 amino acid peptide fragment of Tribolium castaneum defensin 3, SEQ ID NO: 2, disclosed in Contreras et al., 2015 (VNHAACAAHCLLKRKRGGYCNKRRICVCR)”, the “ultrastructural damage, transmission electron microscopy” value with S. aureus [1] is “malformations and bulges in the bacterial membrane”. In the series with S. aureus [2], the “percentage of dead cells (cytotoxicity)” value is on record as approximately 55%. Besides, in the series on S. aureus [5], the mortality percentage is listed as 9.2%. Further, in the series on S. aureus [3], the “biofilm formation, scanning electron microscopy” value is given as “biofilm produced” and the “morphological alterations, scanning electron microscopy” value is “bulges are observed in the bacterial membrane”.

With `N.N.[Cl][Pt][Cl]` [cisplatin], the EC50 in series [4] (setting [6]) came to 168 ± 53.9 µM.

Source of the values: US11365227B2, “Peptide and pharmaceutical compositions of same for use as an antimicrobial and in cancer treatment” (UNIVERSITAT DE VALÈNCIA, priority 2017, dated 2022).
